From BindingDB's records for PubMed 2530338 (Medical University of South Carolina, 1989)

Biological target: T1, Thromboxane A2 receptor (Homo sapiens, UniProt P21731)
T1 sequence (P21731 whole entry): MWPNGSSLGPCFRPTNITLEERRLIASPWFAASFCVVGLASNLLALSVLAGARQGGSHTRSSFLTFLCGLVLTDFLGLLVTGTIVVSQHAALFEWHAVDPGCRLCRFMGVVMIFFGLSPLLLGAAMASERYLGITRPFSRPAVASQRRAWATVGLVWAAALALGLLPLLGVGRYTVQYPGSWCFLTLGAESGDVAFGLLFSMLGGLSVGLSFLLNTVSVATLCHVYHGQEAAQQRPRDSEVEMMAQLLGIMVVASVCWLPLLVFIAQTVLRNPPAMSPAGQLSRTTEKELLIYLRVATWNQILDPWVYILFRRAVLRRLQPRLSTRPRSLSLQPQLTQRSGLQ

Ki [nM]	SMILES
41	CCCCC[C@H](O)CC[C@H]1c2cc([nH]n2)[C@@H]1CC=CCCCC(=O)O [9,11-AzoPGH2]
424	O=C(O)C[C@@H]1CCCc2c1n(Cc1ccc(Cl)cc1)c1ccc(F)cc21 [CAS_113243-00-8]
17	CCCCC[C@H](O)/C=C/C1C[C@H]2C[C@H](S2)[C@@H]1C/C=C\CCCC(=O)O (some centres undefined) [STA2]
62	CCCCC[C@H](O)/C=C/C1[C@@H](C/C=C\CCCC(=O)O)[C@H]2CO[C@@H]1C2 (some centres undefined) [U46619]
